Like-named read-outs stand apart in the source and are kept apart here.
How the values were obtained:
Test in all cases: Kinase selectivity, P33-radiolabeled assay
Type in all cases: biochemical
Details in all cases: 10 μM ATP
Aurora C = target: T1, Aurora C (Homo sapiens, UniProt Q9UQB9)
T1 construct: purchased Reaction Biology Corp
T1 sequence (Q9UQB9 1-309): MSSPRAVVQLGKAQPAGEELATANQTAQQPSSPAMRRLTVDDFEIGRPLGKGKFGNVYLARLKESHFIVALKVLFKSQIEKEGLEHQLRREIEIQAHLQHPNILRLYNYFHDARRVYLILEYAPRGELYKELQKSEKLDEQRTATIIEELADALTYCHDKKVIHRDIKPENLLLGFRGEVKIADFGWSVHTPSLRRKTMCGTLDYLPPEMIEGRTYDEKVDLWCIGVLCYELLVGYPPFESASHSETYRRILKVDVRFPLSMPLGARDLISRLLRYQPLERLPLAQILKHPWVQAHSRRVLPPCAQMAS
Summary of the method: (§1)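 Activity relative to DMSO controls (%) was measured for compound at 10 μM. Assays ran at 10 μM ATP, in duplicate.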

FGFR1 = target: T2, FGFR1 (Homo sapiens, UniProt P11362)
T2 construct: purchased Reaction Biology Corp
T2 sequence (P11362 22-822): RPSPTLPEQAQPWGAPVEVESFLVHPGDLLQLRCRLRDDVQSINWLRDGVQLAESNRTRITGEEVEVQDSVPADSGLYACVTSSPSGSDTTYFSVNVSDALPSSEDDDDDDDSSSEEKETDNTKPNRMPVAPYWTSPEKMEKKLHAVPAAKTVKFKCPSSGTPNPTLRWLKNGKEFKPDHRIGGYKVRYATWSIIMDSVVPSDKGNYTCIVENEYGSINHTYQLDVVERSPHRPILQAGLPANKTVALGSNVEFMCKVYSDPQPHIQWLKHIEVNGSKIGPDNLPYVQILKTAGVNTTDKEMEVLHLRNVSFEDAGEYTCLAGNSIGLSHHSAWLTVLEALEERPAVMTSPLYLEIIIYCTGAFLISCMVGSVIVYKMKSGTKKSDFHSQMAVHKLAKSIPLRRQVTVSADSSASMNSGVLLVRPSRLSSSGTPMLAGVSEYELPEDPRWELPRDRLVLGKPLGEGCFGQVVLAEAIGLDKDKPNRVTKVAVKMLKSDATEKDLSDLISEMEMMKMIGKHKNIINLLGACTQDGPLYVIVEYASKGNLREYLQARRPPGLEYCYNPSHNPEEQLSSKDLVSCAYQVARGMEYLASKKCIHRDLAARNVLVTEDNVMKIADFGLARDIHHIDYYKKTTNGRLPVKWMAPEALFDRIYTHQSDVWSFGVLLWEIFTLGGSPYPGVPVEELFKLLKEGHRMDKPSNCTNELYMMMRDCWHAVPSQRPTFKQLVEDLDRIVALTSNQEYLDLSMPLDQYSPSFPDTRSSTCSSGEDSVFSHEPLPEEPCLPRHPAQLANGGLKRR
Summary of the method: as §1

TAOK3/JIK = target: T3, TAOK3/JIK (Homo sapiens, UniProt Q9H2K8)
T3 construct: purchased Reaction Biology Corp
T3 sequence (Q9H2K8 1-898): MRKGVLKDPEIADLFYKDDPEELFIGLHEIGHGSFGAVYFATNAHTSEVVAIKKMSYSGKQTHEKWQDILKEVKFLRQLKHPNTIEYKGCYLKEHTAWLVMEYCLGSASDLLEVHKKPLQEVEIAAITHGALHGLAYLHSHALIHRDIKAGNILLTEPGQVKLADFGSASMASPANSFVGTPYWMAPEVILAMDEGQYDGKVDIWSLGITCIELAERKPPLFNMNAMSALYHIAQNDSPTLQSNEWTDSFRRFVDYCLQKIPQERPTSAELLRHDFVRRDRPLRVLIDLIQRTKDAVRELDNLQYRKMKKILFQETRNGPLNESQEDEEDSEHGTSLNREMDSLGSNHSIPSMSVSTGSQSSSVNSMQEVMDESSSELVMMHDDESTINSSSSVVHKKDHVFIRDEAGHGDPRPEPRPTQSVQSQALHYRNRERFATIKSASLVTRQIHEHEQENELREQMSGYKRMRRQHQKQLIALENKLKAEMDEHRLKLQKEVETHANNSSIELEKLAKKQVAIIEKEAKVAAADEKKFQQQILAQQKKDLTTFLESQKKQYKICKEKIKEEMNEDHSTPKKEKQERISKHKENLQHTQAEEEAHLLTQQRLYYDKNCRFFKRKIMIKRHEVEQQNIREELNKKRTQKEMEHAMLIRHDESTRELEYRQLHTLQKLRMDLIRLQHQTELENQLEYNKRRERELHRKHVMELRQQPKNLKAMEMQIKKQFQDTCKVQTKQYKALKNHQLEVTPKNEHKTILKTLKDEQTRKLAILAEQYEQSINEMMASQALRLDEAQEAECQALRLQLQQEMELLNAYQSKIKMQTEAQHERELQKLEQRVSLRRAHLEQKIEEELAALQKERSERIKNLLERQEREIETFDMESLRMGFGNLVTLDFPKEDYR
Summary of the method: as §1

CDC7/DBF4 = target: T4, CDC7/DBF4 (Homo sapiens, UniProt O00311)
T4 construct: purchased Reaction Biology Corp
T4 sequence (O00311 whole entry): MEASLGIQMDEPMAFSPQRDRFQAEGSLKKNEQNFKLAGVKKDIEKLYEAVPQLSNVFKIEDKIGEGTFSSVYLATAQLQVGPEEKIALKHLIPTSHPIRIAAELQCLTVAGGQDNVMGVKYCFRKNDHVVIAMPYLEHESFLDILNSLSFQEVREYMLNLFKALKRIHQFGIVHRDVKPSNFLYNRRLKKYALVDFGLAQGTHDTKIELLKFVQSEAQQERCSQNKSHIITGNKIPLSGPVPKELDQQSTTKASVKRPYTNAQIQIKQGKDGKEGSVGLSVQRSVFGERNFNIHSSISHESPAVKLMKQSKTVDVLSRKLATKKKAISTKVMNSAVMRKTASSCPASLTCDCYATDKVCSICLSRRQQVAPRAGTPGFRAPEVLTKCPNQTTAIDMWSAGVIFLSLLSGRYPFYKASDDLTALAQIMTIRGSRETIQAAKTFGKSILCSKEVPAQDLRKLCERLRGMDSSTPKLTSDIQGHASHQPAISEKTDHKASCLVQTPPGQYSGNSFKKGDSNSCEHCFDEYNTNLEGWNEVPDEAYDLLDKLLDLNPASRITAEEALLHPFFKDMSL
T4 sequence (Q9UBU7 whole entry partner): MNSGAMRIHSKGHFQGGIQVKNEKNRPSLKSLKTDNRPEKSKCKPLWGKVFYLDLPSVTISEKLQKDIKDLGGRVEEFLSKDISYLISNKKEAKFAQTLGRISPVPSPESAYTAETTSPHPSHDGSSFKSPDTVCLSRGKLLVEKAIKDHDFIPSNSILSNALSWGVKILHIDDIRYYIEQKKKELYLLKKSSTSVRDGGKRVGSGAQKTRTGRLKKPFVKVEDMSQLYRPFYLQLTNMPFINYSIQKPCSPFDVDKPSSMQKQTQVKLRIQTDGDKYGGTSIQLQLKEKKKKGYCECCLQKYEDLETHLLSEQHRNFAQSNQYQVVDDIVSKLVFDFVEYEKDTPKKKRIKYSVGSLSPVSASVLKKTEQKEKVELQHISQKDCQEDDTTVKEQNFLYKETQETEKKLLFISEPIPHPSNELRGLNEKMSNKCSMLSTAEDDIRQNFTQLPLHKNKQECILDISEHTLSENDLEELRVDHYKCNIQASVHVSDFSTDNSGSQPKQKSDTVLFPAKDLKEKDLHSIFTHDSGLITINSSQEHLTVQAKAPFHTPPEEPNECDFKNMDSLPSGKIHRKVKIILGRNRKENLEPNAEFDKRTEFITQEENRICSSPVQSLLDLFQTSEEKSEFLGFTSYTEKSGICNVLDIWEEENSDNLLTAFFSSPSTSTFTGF
Summary of the method: as §1

COT1/MAP3K8 = target: T5, COT1/MAP3K8 (Homo sapiens, UniProt P41279)
T5 construct: purchased Reaction Biology Corp
T5 sequence (P41279 whole entry): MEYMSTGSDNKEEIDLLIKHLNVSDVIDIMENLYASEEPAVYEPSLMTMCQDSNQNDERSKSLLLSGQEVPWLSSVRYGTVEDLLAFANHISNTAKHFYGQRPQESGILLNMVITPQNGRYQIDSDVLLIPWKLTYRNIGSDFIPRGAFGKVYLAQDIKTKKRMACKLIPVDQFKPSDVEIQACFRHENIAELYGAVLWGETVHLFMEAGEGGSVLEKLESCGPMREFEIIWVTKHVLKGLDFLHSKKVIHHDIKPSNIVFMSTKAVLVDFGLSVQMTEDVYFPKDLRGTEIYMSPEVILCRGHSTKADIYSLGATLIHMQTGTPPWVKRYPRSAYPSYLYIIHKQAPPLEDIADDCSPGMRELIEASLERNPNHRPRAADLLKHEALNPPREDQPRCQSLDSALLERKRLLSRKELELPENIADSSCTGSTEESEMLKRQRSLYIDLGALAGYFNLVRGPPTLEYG
Summary of the method: as §1

PKCepsilon = target: T6, PKCepsilon (Homo sapiens, UniProt Q02156)
T6 construct: purchased Reaction Biology Corp
T6 sequence (Q02156 1-737): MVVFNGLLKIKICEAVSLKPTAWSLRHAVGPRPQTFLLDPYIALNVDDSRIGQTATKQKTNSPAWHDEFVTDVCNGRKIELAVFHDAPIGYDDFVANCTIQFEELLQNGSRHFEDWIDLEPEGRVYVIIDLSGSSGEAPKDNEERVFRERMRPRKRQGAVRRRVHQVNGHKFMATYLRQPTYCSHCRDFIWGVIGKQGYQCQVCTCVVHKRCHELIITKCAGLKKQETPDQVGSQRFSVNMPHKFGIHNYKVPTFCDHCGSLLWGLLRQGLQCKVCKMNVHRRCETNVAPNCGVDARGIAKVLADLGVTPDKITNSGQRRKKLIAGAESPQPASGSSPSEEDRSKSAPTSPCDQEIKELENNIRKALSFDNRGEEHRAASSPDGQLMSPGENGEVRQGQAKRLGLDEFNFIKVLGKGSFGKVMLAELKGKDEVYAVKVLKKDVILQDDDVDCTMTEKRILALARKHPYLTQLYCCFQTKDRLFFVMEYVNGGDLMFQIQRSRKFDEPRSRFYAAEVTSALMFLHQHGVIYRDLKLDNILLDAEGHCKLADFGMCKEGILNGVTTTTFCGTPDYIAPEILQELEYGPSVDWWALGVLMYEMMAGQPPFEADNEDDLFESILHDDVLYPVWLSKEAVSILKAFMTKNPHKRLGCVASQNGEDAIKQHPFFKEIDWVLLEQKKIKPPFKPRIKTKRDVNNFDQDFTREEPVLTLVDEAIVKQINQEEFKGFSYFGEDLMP
Summary of the method: as §1

MARK1 = target: T7, MARK1 (Homo sapiens, UniProt Q9P0L2)
T7 construct: purchased Reaction Biology Corp
T7 sequence (Q9P0L2 whole entry): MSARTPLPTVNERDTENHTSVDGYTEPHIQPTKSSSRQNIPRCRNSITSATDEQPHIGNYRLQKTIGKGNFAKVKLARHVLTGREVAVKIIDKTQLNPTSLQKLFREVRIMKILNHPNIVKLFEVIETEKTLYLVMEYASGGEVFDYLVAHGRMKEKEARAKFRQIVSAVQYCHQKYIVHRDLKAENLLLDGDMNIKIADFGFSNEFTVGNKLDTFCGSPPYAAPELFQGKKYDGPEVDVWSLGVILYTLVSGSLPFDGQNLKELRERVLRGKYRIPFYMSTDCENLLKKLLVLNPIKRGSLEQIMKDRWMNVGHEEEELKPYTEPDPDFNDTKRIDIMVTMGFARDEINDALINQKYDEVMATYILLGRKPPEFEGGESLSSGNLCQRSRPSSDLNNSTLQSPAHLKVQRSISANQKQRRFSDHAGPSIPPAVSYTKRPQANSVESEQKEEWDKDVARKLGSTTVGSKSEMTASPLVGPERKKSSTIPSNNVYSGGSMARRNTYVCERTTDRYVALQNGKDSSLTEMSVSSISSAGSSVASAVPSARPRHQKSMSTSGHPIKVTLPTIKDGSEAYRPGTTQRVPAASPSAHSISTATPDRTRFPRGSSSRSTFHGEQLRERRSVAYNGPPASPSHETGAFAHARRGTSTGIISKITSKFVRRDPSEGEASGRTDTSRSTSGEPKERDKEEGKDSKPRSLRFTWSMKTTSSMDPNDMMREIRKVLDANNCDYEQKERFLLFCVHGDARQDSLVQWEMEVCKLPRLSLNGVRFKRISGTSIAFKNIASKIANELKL
Summary of the method: as §1

BLK = target: T8, BLK (Homo sapiens, UniProt P51451)
T8 construct: purchased Reaction Biology Corp
T8 sequence (P51451 whole entry): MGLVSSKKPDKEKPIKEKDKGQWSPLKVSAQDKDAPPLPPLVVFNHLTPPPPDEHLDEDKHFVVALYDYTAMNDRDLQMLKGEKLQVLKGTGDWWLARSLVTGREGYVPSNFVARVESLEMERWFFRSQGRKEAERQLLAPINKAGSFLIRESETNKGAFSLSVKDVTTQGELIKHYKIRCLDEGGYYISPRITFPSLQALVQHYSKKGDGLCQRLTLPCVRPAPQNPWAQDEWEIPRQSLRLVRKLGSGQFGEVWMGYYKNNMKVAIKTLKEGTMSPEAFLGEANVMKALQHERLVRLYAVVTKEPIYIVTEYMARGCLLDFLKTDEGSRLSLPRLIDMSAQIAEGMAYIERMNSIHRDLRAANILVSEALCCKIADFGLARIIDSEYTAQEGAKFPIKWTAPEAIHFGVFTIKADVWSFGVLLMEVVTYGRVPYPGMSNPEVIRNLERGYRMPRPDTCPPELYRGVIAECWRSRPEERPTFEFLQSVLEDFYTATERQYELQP
Summary of the method: as §1

JAK1 = target: T9, JAK1 (Homo sapiens, UniProt P23458)
T9 construct: purchased Reaction Biology Corp
T9 sequence (P23458 whole entry): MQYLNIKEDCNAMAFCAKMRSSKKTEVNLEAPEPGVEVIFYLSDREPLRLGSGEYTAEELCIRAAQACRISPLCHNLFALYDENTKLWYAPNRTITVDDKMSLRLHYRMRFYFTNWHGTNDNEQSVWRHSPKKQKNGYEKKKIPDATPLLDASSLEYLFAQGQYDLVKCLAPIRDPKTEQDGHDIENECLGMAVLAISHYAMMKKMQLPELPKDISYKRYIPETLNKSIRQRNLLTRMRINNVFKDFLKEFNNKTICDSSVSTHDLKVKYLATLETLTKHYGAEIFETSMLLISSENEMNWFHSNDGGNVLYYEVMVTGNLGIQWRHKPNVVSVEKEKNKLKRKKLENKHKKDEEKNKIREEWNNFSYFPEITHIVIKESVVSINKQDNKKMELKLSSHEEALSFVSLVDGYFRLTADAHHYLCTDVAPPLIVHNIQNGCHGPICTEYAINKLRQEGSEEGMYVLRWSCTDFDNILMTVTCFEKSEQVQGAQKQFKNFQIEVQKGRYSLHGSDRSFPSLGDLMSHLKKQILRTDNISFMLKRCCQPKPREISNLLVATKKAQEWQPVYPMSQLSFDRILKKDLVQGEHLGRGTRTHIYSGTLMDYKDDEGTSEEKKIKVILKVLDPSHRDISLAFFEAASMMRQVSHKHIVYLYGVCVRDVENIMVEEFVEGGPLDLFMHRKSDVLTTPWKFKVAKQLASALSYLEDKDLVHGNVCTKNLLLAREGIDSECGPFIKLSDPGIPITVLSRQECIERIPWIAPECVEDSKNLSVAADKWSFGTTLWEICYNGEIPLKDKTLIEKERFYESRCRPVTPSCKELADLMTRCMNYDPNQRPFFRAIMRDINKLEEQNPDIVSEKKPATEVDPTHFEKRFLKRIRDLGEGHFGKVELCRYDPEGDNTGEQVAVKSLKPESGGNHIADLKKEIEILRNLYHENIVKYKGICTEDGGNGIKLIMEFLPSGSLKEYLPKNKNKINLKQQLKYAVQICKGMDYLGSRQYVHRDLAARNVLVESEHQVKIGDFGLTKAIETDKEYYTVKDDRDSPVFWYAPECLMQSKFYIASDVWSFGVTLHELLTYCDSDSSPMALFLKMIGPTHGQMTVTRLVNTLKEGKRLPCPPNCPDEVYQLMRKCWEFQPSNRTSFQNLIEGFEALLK
Summary of the method: as §1

[1] = read-out: % Enzyme Activity (relative to DMSO controls) AVG
[2] = read-out: % Enzyme Activity (relative to DMSO controls) Data 1
[3] = read-out: % Enzyme Activity (relative to DMSO controls) Data 2

SMILES: CC(C)(C)C(=O)N1N=CC[C@H]1c1ccccc1 [GSK′963]
- remaining activity at 10 µM (Aurora C; [1]): 96.9%
- remaining activity at 10 µM (Aurora C; [2]): 98.4%
- remaining activity at 10 µM (Aurora C; [3]): 95.5%
- remaining activity at 10 µM (FGFR1; [1]): 95%
- remaining activity at 10 µM (FGFR1; [2]): 95.2%
- remaining activity at 10 µM (FGFR1; [3]): 94.8%
- remaining activity at 10 µM (TAOK3/JIK; [1]): 98.2%
- remaining activity at 10 µM (TAOK3/JIK; [2]): 99.2%
- remaining activity at 10 µM (TAOK3/JIK; [3]): 97.3%
- remaining activity at 10 µM (CDC7/DBF4; [1]): 103%
- remaining activity at 10 µM (CDC7/DBF4; [2]): 105%
- remaining activity at 10 µM (CDC7/DBF4; [3]): 101%
- remaining activity at 10 µM (COT1/MAP3K8; [1]): 87.1%
- remaining activity at 10 µM (COT1/MAP3K8; [2]): 86.6%
- remaining activity at 10 µM (COT1/MAP3K8; [3]): 87.5%
- remaining activity at 10 µM (PKCepsilon; [1]): 105%
- remaining activity at 10 µM (PKCepsilon; [2]): 103%
- remaining activity at 10 µM (PKCepsilon; [3]): 106%
- remaining activity at 10 µM (MARK1; [1]): 105%
- remaining activity at 10 µM (MARK1; [2]): 105%
- remaining activity at 10 µM (MARK1; [3]): 105%
- remaining activity at 10 µM (BLK; [1]): 113%
- remaining activity at 10 µM (BLK; [2]): 112%
- remaining activity at 10 µM (BLK; [3]): 113%
- remaining activity at 10 µM (JAK1; [1]): 98.8%
- remaining activity at 10 µM (JAK1; [2]): 97.9%
- remaining activity at 10 µM (JAK1; [3]): 99.8%

From article PMC4979471 (Cell Death Discovery, 2015)
